According to ChEMBL document CHEMBL1128906, “Synthesis and NK-2 antagonist effect of 1,6-diphenyl-pyrazolo [3,4-d]-thiazolo[3,2-a]4H-pyrimidin-4-one” (Bioorg Med Chem Lett, 1996):
The source made the active and inactive calls. The calls are words filed in the database; no cut-off is given here.

Assays:
Format in all cases: functional
Substance-K receptor = biological target: T1, Substance-K receptor (Cavia porcellus, UniProt Q64077); assay: Compound was evaluated for NK-2 receptor antagonistic activity in the guinea pig trachea; conditions: read-out: pA2 (converted)
T1 sequence (Q64077 whole entry): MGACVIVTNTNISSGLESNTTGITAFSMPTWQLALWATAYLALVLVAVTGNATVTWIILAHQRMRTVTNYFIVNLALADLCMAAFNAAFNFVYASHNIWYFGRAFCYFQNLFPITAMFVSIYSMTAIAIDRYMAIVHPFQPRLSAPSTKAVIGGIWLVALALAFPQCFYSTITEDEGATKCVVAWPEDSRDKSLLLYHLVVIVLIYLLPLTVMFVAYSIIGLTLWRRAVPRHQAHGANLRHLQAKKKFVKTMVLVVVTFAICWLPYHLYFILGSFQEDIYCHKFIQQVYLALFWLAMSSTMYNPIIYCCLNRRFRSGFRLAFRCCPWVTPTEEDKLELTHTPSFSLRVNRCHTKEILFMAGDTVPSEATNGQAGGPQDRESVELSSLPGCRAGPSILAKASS

[1] = biological target: T2, Neuromedin-K receptor (Cavia porcellus) (UniProt P30098); assay: Compound was evaluated for NK-3 receptor antagonistic activity in the guinea pig trachea; Inactive
T2 sequence (whole entry): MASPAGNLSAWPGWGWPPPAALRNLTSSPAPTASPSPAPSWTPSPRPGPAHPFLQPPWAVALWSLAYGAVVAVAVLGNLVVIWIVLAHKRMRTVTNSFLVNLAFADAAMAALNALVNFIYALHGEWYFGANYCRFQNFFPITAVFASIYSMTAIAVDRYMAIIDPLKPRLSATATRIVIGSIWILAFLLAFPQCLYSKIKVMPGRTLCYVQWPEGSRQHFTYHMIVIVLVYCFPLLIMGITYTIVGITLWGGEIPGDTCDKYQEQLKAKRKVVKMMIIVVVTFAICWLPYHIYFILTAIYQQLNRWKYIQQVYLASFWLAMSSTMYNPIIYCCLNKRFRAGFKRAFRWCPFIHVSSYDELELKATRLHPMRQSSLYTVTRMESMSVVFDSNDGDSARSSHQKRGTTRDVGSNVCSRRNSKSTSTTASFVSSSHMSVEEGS

[2] = biological target: Substance-P receptor (Cavia porcellus) (UniProt P30547); assay: Compound was evaluated for NK-1 receptor antagonistic activity in the guinea pig trachea; Inactive
Sequence of Substance-P receptor (Cavia porcellus) (P30547 whole entry): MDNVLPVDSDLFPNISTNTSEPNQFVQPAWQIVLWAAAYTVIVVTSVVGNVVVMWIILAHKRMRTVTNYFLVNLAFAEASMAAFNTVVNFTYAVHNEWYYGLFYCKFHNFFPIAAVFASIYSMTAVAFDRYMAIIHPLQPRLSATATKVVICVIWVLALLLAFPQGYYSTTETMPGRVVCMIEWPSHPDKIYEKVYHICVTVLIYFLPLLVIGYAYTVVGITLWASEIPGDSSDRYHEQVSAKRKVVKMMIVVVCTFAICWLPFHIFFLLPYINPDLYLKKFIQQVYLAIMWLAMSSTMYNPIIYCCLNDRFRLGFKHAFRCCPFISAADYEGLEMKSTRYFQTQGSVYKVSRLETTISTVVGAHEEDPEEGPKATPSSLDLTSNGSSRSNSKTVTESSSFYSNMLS

With `O=c1c2cnn(-c3ccccc3)c2nc2scc(-c3ccccc3)n12` the Kb (Substance-K receptor) was 50.1 nM, the pA2 [1] was “inactive” and the pA2 [2] was “inactive”.
